US7767670B2, “Substituted 3-carboxamido isoxazoles as kinase modulators” (Ambit Biosciences Corporation, priority 2003, dated 2010)

Target: T1, MKNK2 (Homo sapiens, UniProt Q9HBH9)
T1 construct: made in house; host or cells: T7 bacteriophage display
Experiment: Binding constant (Kd) measurement, phage-displayed kinase competition binding assay
Conditions: immobilized ATP site ligand competition, read-out: activity towards the target (Kd)
Text: Binding Constant (Kd) Measurements for Small-Molecule-Kinase Interactions

T1 sequence (Q9HBH9 whole entry): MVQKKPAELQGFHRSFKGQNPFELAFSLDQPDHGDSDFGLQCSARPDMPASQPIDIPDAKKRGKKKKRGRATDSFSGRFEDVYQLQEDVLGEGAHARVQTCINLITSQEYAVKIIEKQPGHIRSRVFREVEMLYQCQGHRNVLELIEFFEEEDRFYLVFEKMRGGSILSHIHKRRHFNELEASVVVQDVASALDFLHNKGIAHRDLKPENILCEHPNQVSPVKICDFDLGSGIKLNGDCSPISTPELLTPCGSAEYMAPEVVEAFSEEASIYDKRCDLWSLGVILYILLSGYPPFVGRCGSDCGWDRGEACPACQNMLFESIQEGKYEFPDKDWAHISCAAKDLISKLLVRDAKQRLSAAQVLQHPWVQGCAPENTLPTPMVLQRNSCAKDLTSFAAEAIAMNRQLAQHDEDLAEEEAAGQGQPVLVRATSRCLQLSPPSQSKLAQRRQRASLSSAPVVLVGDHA

CC(C)(C)c1cc(NC(=O)Cc2ccc(NC(=O)c3ccc4cnccc4n3)cc2)no1 [Compound F2]
Kd: < 50 nM
